Data from the supplement of paper PMC11451515.

How the values were obtained:
Conditions in all cases: 48 h
[1] = system: NOMO1; test: cell viability relative to DMSO control; higher = less cytotoxic
Procedure, shortened: (§1)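 NOMO1, SEM and P12-Ichikawa leukemia cells spent at least four passages adapting to each medium before use. They were seeded at 500 cells/well (NOMO1, SEM) or 1000 cells/well (P12-Ichikawa) in 5 μl in 1536-well plates and pin-dosed with library compounds in DMSO at 11 threefold steps from 47 μM down to 0.79 nM. After 48 h at 37°C, CellTiter-Glo One luminescence was read. Viability is reported as a percentage of the DMSO wells on each plate, with cell-free wells as background.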

[2] = system: P12-Ichikawa; test: as above
Procedure, shortened: as §1

[3] = system: SEM cells; test: as above
Procedure, shortened: as §1

[4] = system: NOMO1; test: AUC of viability dose-response curve (% viability x log10 dose units); higher = less sensitive
Procedure, shortened: (§2)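 Seeding of medium-adapted leukemia cells was at 500 or 1000 cells/well in 1536-well plates, followed by 48 h at 37°C with library compounds in DMSO at 11 threefold doses from 47 μM to 0.79 nM. CellTiter-Glo One luminescence was normalised per plate to DMSO and cell-free wells and fitted as a four-parameter log-logistic function of log10 dose. Area under the curve was integrated by trapezoidal rule, with curves exceeding full viability scaled and curves failing quality control removed.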

[5] = system: P12-Ichikawa; test: as above
Procedure, shortened: as §2

[6] = system: SEM cells; test: as above
Procedure, shortened: as §2

CCn1c(-c2nonc2N)nc2cnc(Oc3cccc(NC(=O)c4ccc(OCCN5CCOCC5)cc4)c3)cc21
cell viability [%]
Conditions | [1] | [2] | [3]
HPLM + 10% dialyzed FBS, 0.000781 µM | 90.6 | 110 | 93.1
HPLM + 10% dialyzed FBS, 0.00234 µM | 123 | 107 | 106
HPLM + 10% dialyzed FBS, 0.00702 µM | 105 | 111 | 102
HPLM + 10% dialyzed FBS, 0.0211 µM | 117 | 111 | 98.7
HPLM + 10% dialyzed FBS, 0.0632 µM | 117 | 112 | 111
HPLM + 10% dialyzed FBS, 0.19 µM | 104 | 109 | 114
HPLM + 10% dialyzed FBS, 0.569 µM | 115 | 112 | 113
HPLM + 10% dialyzed FBS, 1.71 µM | 110 | 116 | 111
HPLM + 10% dialyzed FBS, 5.12 µM | 94.6 | 94.9 | 102
HPLM + 10% dialyzed FBS, 15.4 µM | 95.3 | 77 | 82.2
HPLM + 10% dialyzed FBS, 46.1 µM | 83.2 | 70.1 | 70.3
RPMI 5 mM glucose + 10% FBS, 0.000781 µM | 92.8 | 106 | 102
RPMI 5 mM glucose + 10% FBS, 0.00234 µM | 98.6 | 122 | 102
RPMI 5 mM glucose + 10% FBS, 0.00702 µM | 111 | 107 | 108
RPMI 5 mM glucose + 10% FBS, 0.0211 µM | 109 | 115 | 119
RPMI 5 mM glucose + 10% FBS, 0.0632 µM | 110 | 107 | 122
RPMI 5 mM glucose + 10% FBS, 0.19 µM | 95.8 | 113 | 100
RPMI 5 mM glucose + 10% FBS, 0.569 µM | 87.4 | 98.5 | 102
RPMI 5 mM glucose + 10% FBS, 1.71 µM | 93.8 | 102 | 111
RPMI 5 mM glucose + 10% FBS, 5.12 µM | 82.4 | 89.5 | 93.4
RPMI 5 mM glucose + 10% FBS, 15.4 µM | 74.1 | 66.3 | 71.9
RPMI 5 mM glucose + 10% FBS, 46.1 µM | 64 | 55.4 | 54.5
RPMI 5 mM glucose + 10% dialyzed FBS, 0.000781 µM | 88.9 | 104 | 124
RPMI 5 mM glucose + 10% dialyzed FBS, 0.00234 µM | 107 | 116 | 111
RPMI 5 mM glucose + 10% dialyzed FBS, 0.00702 µM | 110 | 127 | 105
RPMI 5 mM glucose + 10% dialyzed FBS, 0.0211 µM | 102 | 117 | 113
RPMI 5 mM glucose + 10% dialyzed FBS, 0.0632 µM | 115 | 115 | 108
RPMI 5 mM glucose + 10% dialyzed FBS, 0.19 µM | 103 | 124 | 102
RPMI 5 mM glucose + 10% dialyzed FBS, 0.569 µM | 89.9 | 117 | 92.2
RPMI 5 mM glucose + 10% dialyzed FBS, 1.71 µM | 87.6 | 102 | 116
RPMI 5 mM glucose + 10% dialyzed FBS, 5.12 µM | 79.1 | 102 | 106
RPMI 5 mM glucose + 10% dialyzed FBS, 15.4 µM | 71.2 | 74.9 | 86.6
RPMI 5 mM glucose + 10% dialyzed FBS, 46.1 µM | 74.4 | 69.5 | 59.7

AUC of viability dose-response curve
Conditions | [4] | [5] | [6]
HPLM + 10% dialyzed FBS | 456 | 446 | 457
RPMI 5 mM glucose + 10% FBS | 432 | 427 | 442
RPMI 5 mM glucose + 10% dialyzed FBS | 429 | 438 | 456

Cc1cc(C(C)(C)C)c(O)c(C)c1CC1=NCCN1
cell viability [%]
Conditions | [1] | [2] | [3]
HPLM + 10% dialyzed FBS, 0.000781 µM | 90.1 | 96.4 | 62.6
HPLM + 10% dialyzed FBS, 0.00234 µM | 99.5 | 98.3 | 80.2
HPLM + 10% dialyzed FBS, 0.00702 µM | 103 | 105 | 75.4
HPLM + 10% dialyzed FBS, 0.0211 µM | 103 | 98.3 | 83
HPLM + 10% dialyzed FBS, 0.0632 µM | 101 | 100 | 76.8
HPLM + 10% dialyzed FBS, 0.19 µM | 108 | 104 | 83.3
HPLM + 10% dialyzed FBS, 0.569 µM | 105 | 110 | 86.9
HPLM + 10% dialyzed FBS, 1.71 µM | 107 | 96.6 | 91.9
HPLM + 10% dialyzed FBS, 5.12 µM | 83.8 | 97.5 | 66.6
HPLM + 10% dialyzed FBS, 15.4 µM | 55 | 71.1 | 60.3
HPLM + 10% dialyzed FBS, 46.1 µM | 43.4 | 69.5 | 62.5
RPMI 5 mM glucose + 10% FBS, 0.000781 µM | 91.6 | 92.6 | 83.8
RPMI 5 mM glucose + 10% FBS, 0.00234 µM | 97.3 | 98.5 | 82.1
RPMI 5 mM glucose + 10% FBS, 0.00702 µM | 99.1 | 98.5 | 91.1
RPMI 5 mM glucose + 10% FBS, 0.0211 µM | 90 | 106 | 83.6
RPMI 5 mM glucose + 10% FBS, 0.0632 µM | 86.2 | 99.2 | 86.7
RPMI 5 mM glucose + 10% FBS, 0.19 µM | 105 | 96.6 | 100
RPMI 5 mM glucose + 10% FBS, 0.569 µM | 90.8 | 99.1 | 102
RPMI 5 mM glucose + 10% FBS, 1.71 µM | 97.8 | 93.8 | 101
RPMI 5 mM glucose + 10% FBS, 5.12 µM | 88.9 | 103 | 53.1
RPMI 5 mM glucose + 10% FBS, 15.4 µM | 56.4 | 63.7 | 51.8
RPMI 5 mM glucose + 10% FBS, 46.1 µM | 43.2 | 60.5 | 59.3
RPMI 5 mM glucose + 10% dialyzed FBS, 0.000781 µM | 78 | 89.8 | 90.3
RPMI 5 mM glucose + 10% dialyzed FBS, 0.00234 µM | 85.6 | 89 | 77.7
RPMI 5 mM glucose + 10% dialyzed FBS, 0.00702 µM | 91.8 | 94.4 | 82.2
RPMI 5 mM glucose + 10% dialyzed FBS, 0.0211 µM | 97.4 | 95.5 | 89.3
RPMI 5 mM glucose + 10% dialyzed FBS, 0.0632 µM | 100 | 94.5 | 93.3
RPMI 5 mM glucose + 10% dialyzed FBS, 0.19 µM | 100 | 104 | 95.4
RPMI 5 mM glucose + 10% dialyzed FBS, 0.569 µM | 97 | 97.9 | 87.5
RPMI 5 mM glucose + 10% dialyzed FBS, 1.71 µM | 93.2 | 105 | 105
RPMI 5 mM glucose + 10% dialyzed FBS, 5.12 µM | 101 | 98.7 | 77.2
RPMI 5 mM glucose + 10% dialyzed FBS, 15.4 µM | 61.2 | 53.8 | 57.9
RPMI 5 mM glucose + 10% dialyzed FBS, 46.1 µM | 54.1 | 48.9 | 55.9

AUC of viability dose-response curve
Conditions | [4] | [5] | [6]
HPLM + 10% dialyzed FBS | 432 | 454 | 360
RPMI 5 mM glucose + 10% FBS | 419 | 444 | 392
RPMI 5 mM glucose + 10% dialyzed FBS | 422 | 429 | 400

CN1CCN(c2ccc([N+](=O)[O-])c3no[n+]([O-])c23)CC1
cell viability [%]
Conditions | [1] | [2] | [3]
HPLM + 10% dialyzed FBS, 0.000781 µM | 86.5 | 84.1 | 93.2
HPLM + 10% dialyzed FBS, 0.00234 µM | 101 | 85.5 | 89
HPLM + 10% dialyzed FBS, 0.00702 µM | 110 | 87.8 | 87.3
HPLM + 10% dialyzed FBS, 0.0211 µM | 114 | 93.8 | 94.7
HPLM + 10% dialyzed FBS, 0.0632 µM | 107 | 99 | 81.1
HPLM + 10% dialyzed FBS, 0.19 µM | 111 | 91.5 | 95.2
HPLM + 10% dialyzed FBS, 0.569 µM | 100 | 94.2 | 97
HPLM + 10% dialyzed FBS, 1.71 µM | 105 | 90.6 | 85.9
HPLM + 10% dialyzed FBS, 5.12 µM | 116 | 95.7 | 88.7
HPLM + 10% dialyzed FBS, 15.4 µM | 86.6 | 95.2 | 82.2
HPLM + 10% dialyzed FBS, 46.1 µM | 56.6 | 82.9 | 52.4
RPMI 5 mM glucose + 10% FBS, 0.000781 µM | 88.4 | 86.1 | 84.6
RPMI 5 mM glucose + 10% FBS, 0.00234 µM | 99.6 | 92.4 | 103
RPMI 5 mM glucose + 10% FBS, 0.00702 µM | 87.6 | 93.1 | 91.4
RPMI 5 mM glucose + 10% FBS, 0.0211 µM | 93.3 | 89 | 101
RPMI 5 mM glucose + 10% FBS, 0.0632 µM | 92.9 | 94.7 | 105
RPMI 5 mM glucose + 10% FBS, 0.19 µM | 103 | 97.7 | 106
RPMI 5 mM glucose + 10% FBS, 0.569 µM | 89.5 | 93.2 | 87.4
RPMI 5 mM glucose + 10% FBS, 1.71 µM | 85.1 | 88.1 | 101
RPMI 5 mM glucose + 10% FBS, 5.12 µM | 94.1 | 95.4 | 110
RPMI 5 mM glucose + 10% FBS, 15.4 µM | 83.9 | 86.6 | 98.4
RPMI 5 mM glucose + 10% FBS, 46.1 µM | 68.1 | 91.3 | 69.1
RPMI 5 mM glucose + 10% dialyzed FBS, 0.000781 µM | 81.5 | 91.9 | 85.9
RPMI 5 mM glucose + 10% dialyzed FBS, 0.00234 µM | 78.1 | 91.9 | 97.3
RPMI 5 mM glucose + 10% dialyzed FBS, 0.00702 µM | 91.3 | 91.2 | 93.4
RPMI 5 mM glucose + 10% dialyzed FBS, 0.0211 µM | 85.6 | 92.1 | 89.3
RPMI 5 mM glucose + 10% dialyzed FBS, 0.0632 µM | 96.1 | 98.8 | 85.2
RPMI 5 mM glucose + 10% dialyzed FBS, 0.19 µM | 95.6 | 91.8 | 99.4
RPMI 5 mM glucose + 10% dialyzed FBS, 0.569 µM | 92.5 | 93.6 | 99.1
RPMI 5 mM glucose + 10% dialyzed FBS, 1.71 µM | 95.9 | 89 | 93.3
RPMI 5 mM glucose + 10% dialyzed FBS, 5.12 µM | 86.6 | 90.2 | 92.4
RPMI 5 mM glucose + 10% dialyzed FBS, 15.4 µM | 87.4 | 91.1 | 76.1
RPMI 5 mM glucose + 10% dialyzed FBS, 46.1 µM | 72.4 | 77.8 | 46.1

AUC of viability dose-response curve
Conditions | [4] | [5] | [6]
HPLM + 10% dialyzed FBS | 457 | 435 | 418
RPMI 5 mM glucose + 10% FBS | 432 | 437 | 464
RPMI 5 mM glucose + 10% dialyzed FBS | 421 | 436 | 424
